Conditions: Liquid, Vibrating tube method

CCCCCCCO [heptan-1-ol]
mass density [kg/m3]
Conditions	278.15 K	288.15 K	298.15 K	308.15 K	318.15 K	328.15 K	338.15 K	348.15 K	358.15 K
100 kPa	832.4	825.5	818.5	811.4	804.3	797.1	789.7	782.1	774.2
1000 kPa	833	826.1	819.1	812.1	805	797.8	790.4	782.9	775.1
5000 kPa	835.4	828.6	821.8	814.7	807.9	800.9	793.7	786.3	778.7
10000 kPa	838.3	831.7	824.9	818.3	811.4	804.6	797.5	790.4	783
15000 kPa	841.2	834.7	828.1	821.5	814.8	808.1	801.2	794.2	787.1
20000 kPa	843.9	837.6	831.1	824.6	818.1	811.5	804.7	797.9	790.9
25000 kPa	846.4	840.4	833.9	827.6	821.2	814.7	808.1	801.4	794.6
30000 kPa	849.2	843.1	836.7	830.5	824.2	817.8	811.4	804.8	798.2
35000 kPa	851.7	845.7	839.5	833.3	827.1	820.8	814.6	808.1	801.5
40000 kPa	854.2	848.2	842.1	836	829.9	823.8	817.5	811.3	804.9
45000 kPa	856.6	850.7	844.7	838.7	832.7	826.6	820.6	814.3	808.1
50000 kPa	859	853.1	847.2	841.3	835.4	829.4	823.4	817.3	811.1
55000 kPa	861.3	855.5	849.7	843.8	838	832.1	826.2	820.2	814.1
60000 kPa	863.4	857.8	852.1	846.1	840.4	834.5	828.7	822.8	816.9

CCCCCCCCO [octan-1-ol]
mass density [kg/m3]
Conditions	278.15 K	288.15 K	298.15 K	308.15 K	318.15 K	328.15 K	338.15 K	348.15 K	358.15 K
100 kPa	835.2	828.4	821.4	814.5	807.5	800.4	793.2	785.6	778
1000 kPa	835.7	829	822	815.1	808.1	801.1	793.9	786.4	778.8
5000 kPa	838	831.5	824.6	817.8	811	804.1	796.9	789.8	782.3
10000 kPa	841	834.4	827.7	821.1	814.4	807.7	800.8	793.6	786.4
15000 kPa	843.7	837.3	830.7	824.2	817.7	811.1	804.4	797.4	790.4
20000 kPa	846.4	840.1	833.6	827.2	820.8	814.4	807.8	801	794.1
25000 kPa	849	842.8	836.4	830.1	823.8	817.5	811.1	804.5	797.7
30000 kPa	851.5	845.5	839.1	833	826.8	820.5	814.2	807.8	801.1
35000 kPa	854	848	841.8	835.7	829.6	823.5	817.3	810.9	804.5
40000 kPa	856.4	850.5	844.4	838.4	832.4	826.4	820.3	814	807.7
45000 kPa	858.8	852.9	846.9	841	835.1	829.1	823.1	817	810.8
50000 kPa	861.1	855.3	849.4	843.5	837.7	831.9	825.9	819.9	813.6
55000 kPa	863.4	857.6	851.7	846	840.3	834.5	828.7	822.7	816.7
60000 kPa	865.5	859.8	853.9	848.2	842.6	836.9	831.2	825.5	819.6
